# Data published in ChEMBL document CHEMBL1154736, “Increasing selectivity of CC chemokine receptor 8 antagonists by engineering nondesolvation related interactions with the intended and off-target binding sites” (J Med Chem, 2009).
# Target: Voltage-gated inwardly rectifying potassium channel KCNH2 (Homo sapiens, UniProt Q12809, S624A)
# Test: Inhibition of human recombinant ERG S624A mutant expressed in CHOK1 cells by whole-cell plate-based electrophysiology
# Conditions: cho-k1
row,SMILES,delta pIC50 wt-mutant
1,O=C(c1ccncc1)N1CCC2(CCN(Cc3ccccc3OC(F)(F)C(F)F)CC2)CC1,0.11
2,COc1ccccc1Oc1ccccc1CN1CCC2(CC1)CCN(C(=O)c1ccc[nH]c1=O)CC2,0.54
3,CC1(C)Oc2cccc(CN3CCC4(CC3)CCN(C(=O)c3ccnc(N)c3)CC4)c2O1,0.59

# Target: Voltage-gated inwardly rectifying potassium channel KCNH2 (Homo sapiens, UniProt Q12809, S624T)
# Test: Inhibition of human recombinant ERG S624T mutant expressed in CHOK1 cells by whole-cell plate-based electrophysiology
# Conditions: cho-k1
row,SMILES,delta pIC50 wt-mutant
1,O=C(c1ccncc1)N1CCC2(CCN(Cc3ccccc3OC(F)(F)C(F)F)CC2)CC1,-0.08
2,COc1ccccc1Oc1ccccc1CN1CCC2(CC1)CCN(C(=O)c1ccc[nH]c1=O)CC2,0.24
3,CC1(C)Oc2cccc(CN3CCC4(CC3)CCN(C(=O)c3ccnc(N)c3)CC4)c2O1,-0.33

# Target: Voltage-gated inwardly rectifying potassium channel KCNH2 (Homo sapiens, UniProt Q12809, Y652A)
# Test: Inhibition of human recombinant ERG Y652A mutant expressed in CHOK1 cells by whole-cell plate-based electrophysiology
# Conditions: cho-k1
row,SMILES,delta pIC50 wt-mutant
1,O=C(c1ccncc1)N1CCC2(CCN(Cc3ccccc3OC(F)(F)C(F)F)CC2)CC1,1
2,COc1ccccc1Oc1ccccc1CN1CCC2(CC1)CCN(C(=O)c1ccc[nH]c1=O)CC2,1.19
3,CC1(C)Oc2cccc(CN3CCC4(CC3)CCN(C(=O)c3ccnc(N)c3)CC4)c2O1,1.22

# Target: Voltage-gated inwardly rectifying potassium channel KCNH2 (Homo sapiens, UniProt Q12809, Y652F)
# Test: Inhibition of human recombinant ERG Y652F mutant expressed in CHOK1 cells by whole-cell plate-based electrophysiology
# Conditions: cho-k1
row,SMILES,delta pIC50 wt-mutant
1,O=C(c1ccncc1)N1CCC2(CCN(Cc3ccccc3OC(F)(F)C(F)F)CC2)CC1,-0.32
2,COc1ccccc1Oc1ccccc1CN1CCC2(CC1)CCN(C(=O)c1ccc[nH]c1=O)CC2,0.35
3,CC1(C)Oc2cccc(CN3CCC4(CC3)CCN(C(=O)c3ccnc(N)c3)CC4)c2O1,-0.19

# Target: Voltage-gated inwardly rectifying potassium channel KCNH2 (Homo sapiens, UniProt Q12809, F656M)
# Test: Inhibition of human recombinant ERG F656M mutant expressed in CHOK1 cells by whole-cell plate-based electrophysiology
# Conditions: cho-k1
row,SMILES,delta pIC50 wt-mutant
1,O=C(c1ccncc1)N1CCC2(CCN(Cc3ccccc3OC(F)(F)C(F)F)CC2)CC1,0.48
2,COc1ccccc1Oc1ccccc1CN1CCC2(CC1)CCN(C(=O)c1ccc[nH]c1=O)CC2,0.22
3,CC1(C)Oc2cccc(CN3CCC4(CC3)CCN(C(=O)c3ccnc(N)c3)CC4)c2O1,0.62

# Target: Voltage-gated inwardly rectifying potassium channel KCNH2 (Homo sapiens, UniProt Q12809, F656T)
# Test: Inhibition of human recombinant ERG F656T mutant expressed in CHOK1 cells by whole-cell plate-based electrophysiology
# Conditions: cho-k1
row,SMILES,delta pIC50 wt-mutant
1,O=C(c1ccncc1)N1CCC2(CCN(Cc3ccccc3OC(F)(F)C(F)F)CC2)CC1,1.42
2,COc1ccccc1Oc1ccccc1CN1CCC2(CC1)CCN(C(=O)c1ccc[nH]c1=O)CC2,1.92
3,CC1(C)Oc2cccc(CN3CCC4(CC3)CCN(C(=O)c3ccnc(N)c3)CC4)c2O1,1.37

# Target: Voltage-gated inwardly rectifying potassium channel KCNH2 (Homo sapiens, UniProt Q12809, F656W)
# Test: Inhibition of human recombinant ERG F656W mutant expressed in CHOK1 cells by whole-cell plate-based electrophysiology
# Conditions: cho-k1
row,SMILES,delta pIC50 wt-mutant
1,O=C(c1ccncc1)N1CCC2(CCN(Cc3ccccc3OC(F)(F)C(F)F)CC2)CC1,-0.54
2,COc1ccccc1Oc1ccccc1CN1CCC2(CC1)CCN(C(=O)c1ccc[nH]c1=O)CC2,-0.18
3,CC1(C)Oc2cccc(CN3CCC4(CC3)CCN(C(=O)c3ccnc(N)c3)CC4)c2O1,-0.39

# Target: T1, Voltage-gated inwardly rectifying potassium channel KCNH2 (Homo sapiens, UniProt Q12809)
# Test: Displacement of [3H]dofetilide from human recombinant ERG expressed in HEK293 cells by patch clamp method
# Conditions: not given
row,SMILES,IC50
1,O=C(c1ccncc1)N1CCC2(CCN(Cc3ccccc3OC(F)(F)C(F)F)CC2)CC1,17000 nM
2,CC1(C)Cc2c(CN3CCC4(CC3)CCN(C(=O)c3ccncc3)CC4)cccc2O1,30200 nM
3,COc1ccccc1Oc1ccccc1CN1CCC2(CC1)CCN(C(=O)c1ccc[nH]c1=O)CC2,2000 nM
4,CC1(C)Oc2cccc(CN3CCC4(CC3)CCN(C(=O)c3ccnc(N)c3)CC4)c2O1,759 nM

# Tested on: not listed separately
# Test: Apparent n-Octanol-water partition coefficient, log D at pH 7.4 by HPLC analysis
# Conditions: not given
row,SMILES,logD
1,C=C(C)COc1ccccc1CN1CCC2(CC1)CCN(C(=O)c1ccncc1)CC2,1.6
2,O=C(c1ccncn1)N1CCC2(CCN(Cc3ccccc3Oc3ccccc3)CC2)CC1,2
3,CC(C)COc1ccccc1CN1CCC2(CC1)CCN(C(=O)c1ccncc1)CC2,1.8
4,O=C(c1ccncc1)N1CCC2(CCN(Cc3cccc4c3OCC4)CC2)CC1,0.3
5,O=C(c1ccncc1)N1CCC2(CCN(Cc3ccccc3OC(F)(F)C(F)F)CC2)CC1,2.8

# Results, then the compound that gave them:
row,logD,SMILES
1,0.9,COc1ccccc1Oc1ccccc1CN1CCC2(CC1)CCN(C(=O)c1ccc[nH]c1=O)CC2
2,1.6,CC1(C)Cc2c(CN3CCC4(CC3)CCN(C(=O)c3ccncc3)CC4)cccc2O1
3,1.2,COc1ccccc1Oc1ccccc1CN1CCC2(CC1)CCN(C(=O)c1ccncn1)CC2
4,1.2,CC1(C)Oc2cccc(CN3CCC4(CC3)CCN(C(=O)c3ccnc(N)c3)CC4)c2O1
5,2.6,CC(C)(C)C1(C)Cc2c(CN3CCC4(CC3)CCN(C(=O)c3ccc(N)cn3)CC4)cccc2O1 (stereo not given)
6,2.5,CCCC1(CC)Cc2c(CN3CCC4(CC3)CCN(C(=O)c3ccc(N)cn3)CC4)cccc2O1 (stereo not given)

# Target: T1, Voltage-gated inwardly rectifying potassium channel KCNH2
# Test: Inhibition of wild type human ERG expressed in CHOK1 cells by whole-cell plate-based electrophysiology
# Conditions: not given
row,SMILES,IC50
1,O=C(c1ccncc1)N1CCC2(CCN(Cc3ccccc3OC(F)(F)C(F)F)CC2)CC1,5130 nM
2,CC1(C)Cc2c(CN3CCC4(CC3)CCN(C(=O)c3ccncc3)CC4)cccc2O1,7080 nM
3,COc1ccccc1Oc1ccccc1CN1CCC2(CC1)CCN(C(=O)c1ccc[nH]c1=O)CC2,14100 nM
4,CC1(C)Oc2cccc(CN3CCC4(CC3)CCN(C(=O)c3ccnc(N)c3)CC4)c2O1,16600 nM

# Target: C-C chemokine receptor type 8 (Homo sapiens, UniProt P51685)
# Sequence (P51685 whole entry): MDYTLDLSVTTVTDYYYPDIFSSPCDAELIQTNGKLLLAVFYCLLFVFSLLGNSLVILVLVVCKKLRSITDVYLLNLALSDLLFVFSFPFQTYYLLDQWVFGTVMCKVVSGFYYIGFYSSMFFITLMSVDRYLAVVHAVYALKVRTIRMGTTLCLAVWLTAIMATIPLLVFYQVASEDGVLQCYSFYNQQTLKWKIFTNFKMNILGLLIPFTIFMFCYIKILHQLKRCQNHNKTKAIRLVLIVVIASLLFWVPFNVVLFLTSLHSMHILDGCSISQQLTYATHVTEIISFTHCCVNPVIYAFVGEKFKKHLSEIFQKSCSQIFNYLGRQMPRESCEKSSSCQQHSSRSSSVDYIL
# Test: Antagonist activity at human CCR8
# Assay type: functional
# Conditions: not given
row,SMILES,IC50
1,C=C(C)COc1ccccc1CN1CCC2(CC1)CCN(C(=O)c1ccncc1)CC2,70.8 nM
2,O=C(c1ccncn1)N1CCC2(CCN(Cc3ccccc3Oc3ccccc3)CC2)CC1,141 nM
3,CC(C)COc1ccccc1CN1CCC2(CC1)CCN(C(=O)c1ccncc1)CC2,107 nM
4,O=C(c1ccncc1)N1CCC2(CCN(Cc3cccc4c3OCC4)CC2)CC1,1480 nM
5,O=C(c1ccncc1)N1CCC2(CCN(Cc3ccccc3OC(F)(F)C(F)F)CC2)CC1,525 nM

# These reach a lower IC50. Values come first.
row,IC50,SMILES
1,55 nM,COc1ccccc1Oc1ccccc1CN1CCC2(CC1)CCN(C(=O)c1ccc[nH]c1=O)CC2
2,30.9 nM,CC1(C)Cc2c(CN3CCC4(CC3)CCN(C(=O)c3ccncc3)CC4)cccc2O1
3,14.8 nM,COc1ccccc1Oc1ccccc1CN1CCC2(CC1)CCN(C(=O)c1ccncn1)CC2
4,11.5 nM,COc1ccccc1Oc1ccccc1CN1CCC2(CC1)CCN(C(=O)c1ccncc1)CC2
5,6.61 nM,CC1(C)Oc2cccc(CN3CCC4(CC3)CCN(C(=O)c3ccnc(N)c3)CC4)c2O1
6,2.82 nM,CC(C)(C)C1(C)Cc2c(CN3CCC4(CC3)CCN(C(=O)c3ccc(N)cn3)CC4)cccc2O1 (stereo not given)
7,2.4 nM,CCCC1(CC)Cc2c(CN3CCC4(CC3)CCN(C(=O)c3ccc(N)cn3)CC4)cccc2O1 (stereo not given)

# Target: Voltage-gated inwardly rectifying potassium channel KCNH2 (Homo sapiens, UniProt Q12809, T623S)
# Test: Inhibition of human recombinant ERG T623S mutant expressed in CHOK1 cells by whole-cell plate-based electrophysiology
# Conditions: cho-k1
row,SMILES,delta pIC50 wt-mutant
1,O=C(c1ccncc1)N1CCC2(CCN(Cc3ccccc3OC(F)(F)C(F)F)CC2)CC1,0.06
2,COc1ccccc1Oc1ccccc1CN1CCC2(CC1)CCN(C(=O)c1ccc[nH]c1=O)CC2,0.51
3,CC1(C)Oc2cccc(CN3CCC4(CC3)CCN(C(=O)c3ccnc(N)c3)CC4)c2O1,-0.06
